The results in this text go back to US10640495B2, “Heterocycle derivatives having TrkA inhibitory activity” (Shionogi & Co., Ltd., priority 2015, dated 2020).

A value given as a limit tells only on which side of the number the result lay.

Sequence of human TrkA (P04629 440-796): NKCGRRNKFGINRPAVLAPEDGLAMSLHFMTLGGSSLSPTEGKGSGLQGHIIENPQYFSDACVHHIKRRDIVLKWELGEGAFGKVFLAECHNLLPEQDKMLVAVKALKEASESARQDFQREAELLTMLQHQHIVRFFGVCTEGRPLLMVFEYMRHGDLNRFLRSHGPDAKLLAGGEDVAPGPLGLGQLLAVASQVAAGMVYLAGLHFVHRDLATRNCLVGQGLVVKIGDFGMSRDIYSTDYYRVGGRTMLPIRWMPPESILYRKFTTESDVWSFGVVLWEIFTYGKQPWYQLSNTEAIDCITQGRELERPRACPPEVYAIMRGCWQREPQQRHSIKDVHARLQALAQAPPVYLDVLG

The target of the first test is human TrkA (Homo sapiens (Human), UniProt P04629). Nature of the test: Human TrkA inhibition assay (Test Example 2). It counts as biochemical. To be noted: Table 152, human TrkA inhibition; read-out: IC50_nM. As for the experimental part:
Seven point five μL per well of human TrkA (PV3144, Lifetechnologies, final concentration: 1 nmol/L) suspended in the assay buffer (100 mmol/L 4-(2-hydroxyethyl)-1-piperazineethanesulfonic acid (HEPES), 10 mmol/L magnecium chloride, 0.003 vol % Brij-35, 0.004 vol % Tween20 and 1 mmol/L dithiothreitol (DTT)) was applied in a 384 well plate and the plate was pre-incubated for 15 min at room temperature with 0.4 μL of each compound (final concentration: 200 μmol/L-1 pmol/L) dissolved in DMSO. Then, fluorescent substrate (FL-peptide 27, 760424, PerkinElmer, final concentration: 1.5 μmol/L) and ATP (final concentration 500 μmol/L) dissolved in the assay buffer was added in each well. After the incubation of 120 min at 37° C., fifteen μL of termination buffer (100 mmol/L HEPES, 40 mmol/L ethylenediaminetetraacetic acid (EDTA), 10 mmol/L magnecium chloride, 0.003 vol % Brij-35, 0.004 vol % Tween20, 1 mmol/L DTT and 0.16 vol % Coating Reagent 3) was added in each well to stop the enzyme reaction. Fluorescent intensities (FI) of phosphorylated and non-phosphorylated fluorescent substrates were measured by LabChip EZReader II (Caliper LifeSciences, Inc.), and conversion ratio (CR) was calculated by the following formula-1. The CR in the well applied with DMSO alone was used as a negative control and the CR in the well without applying TrkA was used as a positive control. The inhibitory effect of each compound on TrkA phosphorylation was calculated by the following formula-2. CR (%)=(FI of phosphorylated substrate/(FI of phosphorylated substrate+FI of non-phosphorylated substrate))×100 (Formula-1) Phosphorylation inhibition (%)=(1−(CR with compound treatment−CR of positive control)/(CR of negative control−CR of positive control))×100 (Formula-2)
IC50 values (nmol/L) were determined by the logistic regression using the inhibition data in 10 points of 3-fold dilution series at a compound concentration range of 20 nmol/L to 1 pmol/L, or 10 points of 3-fold dilution series at the range of 2 μmol/L to 0.1 nmol/L, or 10 points of 3-fold dilution series at the range of 200 μmol/L to 10 nmol/L, or 15 points of 3-fold dilution series at the range of 200 μmol/L to 0.04 nmol/L.
The evaluation results of the compounds in the present invention are indicated as follows. IC50 values of 0 to 100 nM, 100 to 1000 nM and over 1000 nM were shown as “A”, “B” and “C”, respectively.
As to `Cc1c(-c2cnn(C)c2)nn(-c2ccccc2)c1NC(=O)N[C@@H]1CN(Cc2csnn2)O[C@H]1c1ccccc1` (racemic) [Compound I-2], the IC50 fell in the range of 100 to 1000 nM.

Consider `COCC[C@@H]1O[C@@H](NC(=O)Nc2c(C)c(-c3cnn(C)c3)nn2-c2ccccc2)[C@H](c2ccccc2)O1` (racemic) [Compound I-5], for which the IC50 was less than 100 nM.

Take `COCCN1C[C@@H](NC(=O)Nc2c(C)c(-c3cnn(C)c3)nn2-c2ccccc2)[C@H](c2ccc(F)c(F)c2)O1` (racemic) [Compound I-8]: the IC50 is less than 100 nM.

On to `COCCN1C[C@@H](NC(=O)Nc2c(C)c(-c3cnn(C)c3)nn2-c2ccccc2)[C@H](c2ccnc(Cl)c2)O1` (racemic) [Compound I-9], for which the IC50 is less than 100 nM.

For the compound `COCC[C@@H]1C[C@@H](NC(=O)Nc2c(C)c(-c3cnn(C)c3)nn2-c2ccccc2)[C@H](c2ccc(F)c(F)c2)O1` (racemic) [Compound I-23], the IC50 was less than 100 nM.

Regarding `COCCN1C[C@@H](NC(=O)Nc2c(C)c(-c3cnc(C)nc3)nn2-c2ccccc2)[C@H](c2ccc(F)c(F)c2)O1` (racemic) [Compound I-26], the IC50 was less than 100 nM.

For the compound `COCCN1C[C@@H](NC(=O)Nc2c(C)c(-c3ccc(OCc4ccccc4)nc3)nn2-c2ccccc2)[C@H](c2ccc(F)c(F)c2)O1` (racemic) [Compound I-27], the IC50 is less than 100 nM.

As to `COCCN1C[C@@H](NC(=O)Nc2c(C)c(C3=CCN(C(=O)OC(C)(C)C)CC3)nn2-c2ccccc2)[C@H](c2ccc(F)c(F)c2)O1` (racemic) [Compound I-29], the IC50 is less than 100 nM.

As to `COCCN1C[C@@H](NC(=O)Nc2c(C)c(C3=CCNCC3)nn2-c2ccccc2)[C@H](c2ccc(F)c(F)c2)O1` (racemic) [Compound I-30], the IC50 is less than 100 nM.

`COCCN1C[C@@H](NC(=O)Nc2c(C)c(-c3ccc(=O)[nH]c3)nn2-c2ccccc2)[C@H](c2ccc(F)c(F)c2)O1` (racemic) [Compound I-32]: the IC50 was less than 100 nM.

As to `COCCN1C[C@@H](NC(=O)Nc2c(C)c(-c3ccc(C(=O)OC(C)(C)C)cc3)nn2-c2ccccc2)[C@H](c2ccc(F)c(F)c2)O1` (racemic) [Compound I-33], the IC50 is less than 100 nM.

Regarding `COCCN1C[C@@H](NC(=O)Nc2c(C)c(-c3cnc(CO)nc3)nn2-c2ccccc2)[C@H](c2ccc(F)c(F)c2)O1` (racemic) [Compound I-34], the IC50 is less than 100 nM.

In the case of `COCCN1C[C@@H](NC(=O)Nc2c(C)c(-c3ccc(C(=O)O)cc3)nn2-c2ccccc2)[C@H](c2ccc(F)c(F)c2)O1` (racemic) [Compound I-35], the IC50 was less than 100 nM.

As for `COCCN1C[C@@H](NC(=O)Nc2c(C)c(C3=CCN(C(=O)OC(C)(C)C)CC3)nn2-c2ccccc2)[C@H](c2ccnc(F)c2)O1` (racemic) [Compound I-41], the IC50 is less than 100 nM.

For the compound `COCCN1C[C@@H](NC(=O)Nc2c(C)c(C3=CCN(C(C)=O)CC3)nn2-c2ccccc2)[C@H](c2ccnc(F)c2)O1` (racemic) [Compound I-42], the IC50 was less than 100 nM.

Consider `COCCN1C[C@@H](NC(=O)Nc2c(C)c(-c3cnc4nc(C)nn4c3)nn2-c2ccccc2)[C@H](c2ccc(F)c(F)c2)O1` (racemic) [Compound I-43], for which the IC50 was less than 100 nM.

As to `COCCN1C[C@@H](NC(=O)Nc2c(C)c(-c3cnc4ncnn4c3)nn2-c2ccccc2)[C@H](c2ccc(F)c(F)c2)O1` (racemic) [Compound I-44], the IC50 was less than 100 nM.

The same test, now with this note: Table 153, human TrkA inhibition; read-out: IC50.
On to `COCCN1C[C@@H](NC(=O)Nc2c(C)c(-c3cnc(C)nc3)nn2-c2ccccc2)[C@H](c2cnc(F)c(F)c2)O1` (racemic) [Compound I-45], for which the IC50 was less than 100 nM.

Regarding `COCCN1C[C@@H](NC(=O)Nc2c(C)c(C3=CCN(C(=O)OC(C)(C)C)CC3)nn2-c2ccccc2)[C@H](c2cnc(F)c(F)c2)O1` (racemic) [Compound I-46], the IC50 is less than 100 nM.

As to `COCCN1C[C@@H](NC(=O)Nc2c(C)c(C3=CCNCC3)nn2-c2ccccc2)[C@H](c2cnc(F)c(F)c2)O1` (racemic) [Compound I-48], the IC50 is less than 100 nM.

As for `COCCN1C[C@@H](NC(=O)Nc2c(C)c(C3=CCN(C(C)=O)CC3)nn2-c2ccccc2)[C@H](c2cnc(F)c(F)c2)O1` (racemic) [Compound I-49], the IC50 is less than 100 nM.

Consider `COCCN1C[C@@H](NC(=O)Nc2c(C)c(-c3cccc(C(=O)OC(C)(C)C)c3)nn2-c2ccccc2)[C@H](c2ccc(F)c(F)c2)O1` (racemic) [Compound I-50], for which the IC50 is less than 100 nM.

Regarding `COCCN1C[C@@H](NC(=O)Nc2c(C)c(-c3cccc(C(=O)O)c3)nn2-c2ccccc2)[C@H](c2ccc(F)c(F)c2)O1` (racemic) [Compound I-51], the IC50 was less than 100 nM.

Consider `COCCN1C[C@@H](NC(=O)Nc2c(C)c(-c3cnn(C)c3)nn2-c2ccccc2)[C@H](c2cnc(F)c(F)c2)O1` (racemic) [Compound I-52], for which the IC50 was less than 100 nM.

On to `COCCN1C[C@@H](NC(=O)Nc2c(C)c(C3=CCN(C(=O)CO)CC3)nn2-c2ccccc2)[C@H](c2ccc(F)c(F)c2)O1` (racemic) [Compound I-53], for which the IC50 was less than 100 nM.

Turning to `COCC[C@@H]1C[C@@H](NC(=O)Nc2c(C)c(C3=CCN(C(=O)OC(C)(C)C)CC3)nn2-c2ccccc2)[C@H](c2ccc(F)c(F)c2)O1` (racemic) [Compound I-54], the IC50 was less than 100 nM.

Regarding `COCC[C@@H]1C[C@@H](NC(=O)Nc2c(C)c(C3=CCNCC3)nn2-c2ccccc2)[C@H](c2ccc(F)c(F)c2)O1` (racemic) [Compound I-55], the IC50 is less than 100 nM.

As for `COCC[C@@H]1C[C@@H](NC(=O)Nc2c(C)c(C3=CCN(C(=O)CO)CC3)nn2-c2ccccc2)[C@H](c2ccc(F)c(F)c2)O1` (racemic) [Compound I-56], the IC50 is less than 100 nM.

For the compound `COCCN1C[C@@H](NC(=O)Nc2c(C)c(-c3ccc(C#N)cc3)nn2-c2ccccc2)[C@H](c2cnc(F)c(F)c2)O1` (racemic) [Compound I-60], the IC50 is less than 100 nM.

For `COCCN1C[C@@H](NC(=O)Nc2c(C)c(OCC(C)(C)O)nn2-c2ccccc2)[C@H](c2ccc(F)c(F)c2)O1` (racemic) [Compound I-61], the IC50 was less than 100 nM.

As to `CCN1CCC(NC(=O)c2cc(-c3nn(-c4ccccc4)c(NC(=O)N[C@@H]4CN(CCOC)O[C@H]4c4ccc(F)c(F)c4)c3C)ccn2)CC1` (racemic) [Compound I-62], the IC50 is less than 100 nM.

In the case of `COCCN1C[C@@H](NC(=O)Nc2c(C)c(-c3cnc4cnn(C)c4c3)nn2-c2ccccc2)[C@H](c2ccnc(F)c2)O1` (racemic) [Compound I-63], the IC50 is less than 100 nM.

For the compound `CCN1CCC(NC(=O)c2cc(-c3nn(-c4ccccc4)c(NC(=O)N[C@@H]4C[C@@H](CCOC)O[C@H]4c4ccc(F)c(F)c4)c3C)ccn2)CC1` (racemic) [Compound I-64], the IC50 is less than 100 nM.

Still in this test, the particulars now being: human TrkA 1 nmol/L, ATP 500 μmol/L, 120 min at 37° C.; read-out: IC50 values (TrkA phosphorylation inhibition).
For the compound `Cc1c(-c2cnn(C)c2)nn(-c2ccccc2)c1NC(=O)N[C@@H]1OC(C)(C)O[C@H]1c1ccccc1` (racemic) [Compound I-1], the IC50 is 5200 nM.

In the case of `CCN1C[C@@H](NC(=O)Nc2c(C)c(-c3cnn(C)c3)nn2-c2ccccc2)[C@H](c2ccccc2)O1` (racemic) [Compound I-3], the IC50 is 120 nM.

As for `COCCN1C[C@@H](NC(=O)Nc2c(C)c(-c3cnn(C)c3)nn2-c2ccccc2)[C@H](c2ccc(F)c(F)c2)N1` (racemic) [Compound I-10], the IC50 was 170 nM.

`COCCN1C[C@@H](NC(=O)Nc2c(C)c(-c3ccc4c(cnn4C)c3)nn2-c2ccccc2)[C@H](c2ccc(F)c(F)c2)O1` (racemic) [Compound I-22]: the IC50 was found to be 0.81 nM.

Turning to `COCC[C@@H]1C[C@@H](NC(=O)Nc2c(C)c(-c3cnc(C)nc3)nn2-c2ccccc2)[C@H](c2ccc(F)c(F)c2)O1` (racemic) [Compound I-28], the IC50 worked out at 2.5 nM.

On to `COCCN1C[C@@H](NC(=O)Nc2c(C)c(C3=CCN(C(C)=O)CC3)nn2-c2ccccc2)[C@H](c2ccc(F)c(F)c2)O1` (racemic) [Compound I-31], for which the IC50 was found to be 0.78 nM.

Take `CCN1CCC(NC(=O)c2ccc(-c3nn(-c4ccccc4)c(NC(=O)N[C@@H]4CN(CCOC)O[C@H]4c4ccc(F)c(F)c4)c3C)cc2)CC1` (racemic) [Compound I-36]: the IC50 worked out at 1.4 nM.

Turning to `COCCN1C[C@@H](NC(=O)Nc2c(C)c(-c3cnc(C)nc3)nn2-c2ccccc2)[C@H](c2ccnc(F)c2)O1` (racemic) [Compound I-47], the IC50 was 4 nM.
